For 26 molecules, IC50 results are on record in US11827628B2, “Compositions and methods for inhibition of the JAK pathway” (Rigel Pharmaceuticals, Inc., priority 2005, dated 2023).

Where two headings read alike, the source gives them in different places.

Test [1] relates to Primary human T-cells. In words: Primary Human T-Cell Proliferation Assay Stimulated with IL-2 (CellTiter-Glo). It is filed as cell-based. The note with it: read-out: IC50, Example 42. Summed up:
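Peripheral blood T-cells pre-activated with anti-CD3/anti-CD28 and IL-2 were washed free of IL-2, then cultured with compound plus IL-2 for 72 hours at 37° C, duplicate wells. Viability read as ATP by CellTiter-Glo luminescence; IC50 reported.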

Test [2] relates to IL-4 stimulated expression of CD23 in human Ramos B cells (JAK-1 and JAK-3). The test is described as follows: Assay for Ramos B-Cell Line Stimulated with IL-4 (CD23 upregulation, FACS). The conditions noted are these: read-out: IC50, Example 41. It is filed as cell-based. Summed up: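 Human Ramos B cells in RPMI with 5% serum were pre-incubated with compound or DMSO for 1 h at 37 °C, then stimulated with IL-4 at a final 50 units/mL for 20-24 h. CD23 upregulation was measured by anti-CD23-PE staining and flow cytometry, and IC50 values were calculated.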

[3] abbreviates: Homo sapiens, T-cell, primary human T-cells stimulated with IL-2, proliferation.
Where [4] appears, read: Homo sapiens, Ramos, Ramos B cells stimulated with IL-4, CD23 expression by FACS.
The mark [5] stands for this setting: primary human T-cells stimulated with IL-2, proliferation.
Where [6] appears, read: Ramos B cells stimulated with IL-4, CD23 expression by FACS.
Setting [7] is: primary human T-cell proliferation stimulated with IL-2.
Where [8] appears, read: Ramos B-cell line stimulated with IL-4, CD23 expression by FACS.

In the case of `COc1c(C)cc(Nc2ncc(F)c(Nc3ccc4c(c3)NC(=O)C(F)(F)O4)n2)cc1S(N)(=O)=O` [VII-38, N2-(3-Aminosulfonyl-4-methoxy-5-methylphenyl)-N4-(2,2-difluoro-4H-benz[1,4]oxazin-3-on-6-yl)-5-fluoro-2,4-pyrimidinediamine], the figures for the IC50 in test [1] (setting [3]) and in test [2] (setting [4]) were 417 nM and 62.3 nM, respectively.
As to `CC1(C)Oc2ccc(Nc3nc(Nc4cccc(S(N)(=O)=O)c4)ncc3N)cc2NC1=O` [VII-39, 5-Amino-N2-(3-amionsulfonylphenyl)-N4-(2,2-dimethyl-3-oxo-4H-benz[1,4]oxazin-6-yl)-2,4-pyrimidinediamine], the figures for the IC50 in test [1] (setting [5]) and in test [2] (setting [6]) were 919 nM and 772 nM, respectively.
As for `CN1C(=O)COc2ccc(Nc3nc(Nc4ccc(S(N)(=O)=O)cc4)ncc3F)cc21` [VII-40, N2-(4-Aminosulfonylphenyl)-5-fluoro-N4-(4-methyl-3-oxo-benz[1,4]oxazin-6-yl)-2,4-pyrimidinediamine], the IC50 in test [1] (setting [3]) amounted to 6480 nM; in test [2] (setting [4]), 236 nM.
In the same order, the values of `CN1C(=O)COc2ccc(Nc3nc(Nc4cccc(S(N)(=O)=O)c4)ncc3F)cc21` [VII-41, N2-(3-Aminosulfonylphenyl)-5-fluoro-N4-(4-methyl-3-oxo-benz[1,4]oxazin-6-yl)-2,4-pyrimidinediamine] are 264 nM and 46.9 nM.
Turning to `CC1(C)Oc2cc(Nc3nc(Nc4cccc(S(N)(=O)=O)c4)ncc3F)cnc2NC1=O` [VII-51, N2-(3-Aminosulfonylphenyl)-N4-[2,2-dimethyl-3-oxo-4H-5-pyrid[1,4]oxazin-7-yl]-5-fluoro-2,4-pyrimidinediamine], the IC50 in test [1] (setting [5]) is 1790 nM; in test [2] (setting [6]) it was 541 nM.
In the same order, the values of `CC(C)(C)OC(=O)NC1CCOc2ccc(Nc3nc(Nc4ccc(S(N)(=O)=O)cc4)ncc3F)cc21` (stereo not shown) [VII-59, N2-(4-Aminosulfonylphenyl)-N4-(4-N-tert-butoxycarbonylamino-3,4-dihydro-2H-1-benzopyran-6-yl)-5-fluoro-2,4-pyrimidinediamine] are 2990 nM and 831 nM.
In the case of `Cc1ccc(Nc2ncc(F)c(Nc3ccc4ccccc4n3)n2)cc1S(N)(=O)=O` [VII-64, N2-(3-Aminosulfonyl-4-methylphenyl)-5-fluoro-N4-(quinolin-2-yl)-2,4-pyrimidinediamine], the IC50 in test [1] (setting [3]) worked out at 3810 nM; in test [2] (setting [4]), 363 nM.
Take `Cc1ccc(Nc2ncc(F)c(Nc3cnc4ccccc4c3)n2)cc1S(N)(=O)=O` [VII-65, N2-(3-Aminosulfonyl-4-methylphenyl)-5-fluoro-N4-(quinolin-3-yl)-2,4-pyrimidinediamine]: the IC50 in test [1] (setting [3]) stood at 3060 nM; in test [2] (setting [4]), 385 nM.
As to `NS(=O)(=O)c1cccc(Nc2ncc(F)c(Nc3cnc4ccccc4c3)n2)c1` [VII-66, N2-(3-Aminosulfonylphenyl)-5-fluoro-N4-(quinolin-3-yl)-2,4-pyrimidinediamine], the IC50 in test [1] (setting [3]) is 2870 nM; in test [2] (setting [4]) it was 369 nM.
Turning to `Cc1ccc(Nc2ncc(F)c(Nc3cccc4ncccc34)n2)cc1S(N)(=O)=O` [VII-67, N2-(3-Aminosulfonyl-4-methylphenyl)-5-fluoro-N4-(quinolin-5-yl)-2,4-pyrimidinediamine], the values for the IC50 in test [1] (setting [3]) and in test [2] (setting [4]) were 768 nM and 315 nM, respectively.
For the molecule `NS(=O)(=O)c1cccc(Nc2ncc(F)c(Nc3cccc4ncccc34)n2)c1` [VII-68, N2-(3-Aminosulfonylphenyl)-5-fluoro-N4-(quinolin-5-yl)-2,4-pyrimidinediamine], the IC50 in test [1] (setting [3]) stood at 1300 nM; in test [2] (setting [4]) it was 812 nM.
With `NS(=O)(=O)c1cccc(Nc2ncc(F)c(Nc3cccc4cccnc34)n2)c1` [VII-78, N2-(3-Aminosulfonylphenyl)-5-fluoro-N4-(quinolin-8-yl)-2,4-pyrimidinediamine], the IC50 in test [1] (setting [3]) stood at 682 nM; in test [2] (setting [4]) it was 85.8 nM.
Consider `NS(=O)(=O)c1cc(Nc2ncc(F)c(Nc3cccc4cccnc34)n2)ccc1F` [VII-79, N2-(3-Aminosulfonyl-4-fluorophenyl)-5-fluoro-N4-(quinolin-8-yl)-2,4-pyrimidinediamine], for which the results for the IC50 in test [1] (setting [3]) and in test [2] (setting [4]) were 3200 nM and 206 nM, respectively.
As for `Cc1ccc(Nc2ncc(F)c(N[C@H]3[C@@H](C(N)=O)[C@@H]4C=C[C@H]3C4)n2)cc1S(N)(=O)=O` [VII-82, (1R,2R,3S,4S)N4-(3-Aminocarbonylbicyclo[2.2.1]hept-5-en-2-yl)-N2-(3-aminosulfonyl-4-methylphenyl)-5-fluoro-2,4-pyrimidinediamine], the IC50 in test [1] (setting [3]) is 1080 nM; in test [2] (setting [4]), 313 nM.
Turning to `COc1c(C)cc(Nc2ncc(F)c(N[C@H]3[C@@H](C(N)=O)[C@@H]4C=C[C@H]3C4)n2)cc1S(N)(=O)=O` [VII-83, (1R,2R,3S,4S)N2-(3-Aminosulfonyl-4-methoxy-5-methylphenyl)-N4-(3-aminocarbonylbicyclo[2.2.1]hept-5-ene-2-yl)-5-fluoro-2,4-pyrimidinediamine], the IC50 is 937 nM in test [1] (setting [3]) and 77.5 nM in test [2] (setting [4]).
Take “N2-(3-Aminocarbonyl-5-methylphenyl)-5-fluoro-N2-[4-(1H-pyrazol-5-yl)amidophenyl)-2,4-pyrimidinediamine [II-22]”: the half-maximal inhibitory concentration (IC50) in test [1] (setting [7]) was 7490 nM; in test [2] (setting [8]), 858 nM.
For the molecule “N2-(3-Aminosulfonyl-4-chlorophenyl)-N4-(4-benzylphenyl)-5-fluoro-2,4-pyrimidinediamine [III-64]”, the results for the IC50 in test [1] (setting [7]) and in test [2] (setting [8]) were 5960 nM and 447 nM, respectively.
As to “N2-(3-Aminosulfonyl-4-methoxy-5-methylphenyl)-5-fluoro-N4-(4-trifluoromethylphenyl)-2,4-pyrimidinediamine [VI-34]”, the IC50 came out at 839 nM in test [1] (setting [5]) and 157 nM in test [2] (setting [6]).
With “N2-(3-Aminosulfonyl-4-methoxy-5-methylphenyl)-N4-(4-benzylphenyl)-5-fluoro-2,4-pyrimidinediamine [III-65]”, the figures for the IC50 in test [1] (setting [7]) and in test [2] (setting [8]) were 936 nM and 209 nM, respectively.
Turning to “N2-(3-Aminosulfonyl-4-methoxy-5-methylphenyl)-N4-(4-chloro-3-trifluoromethyl-phenyl)-5-fluoro-2,4-pyrimidinediamine [VI-40]”, the IC50 in test [1] (setting [5]) was found to be 1240 nM; in test [2] (setting [6]), 288 nM.
With “N2-(3-Aminosulfonyl-4-methylphenyl)-N4-(4-benzylphenyl)-5-fluoro-2,4-pyrimidinediamine [III-63]”, the IC50 in test [1] (setting [7]) stood at 1880 nM; in test [2] (setting [8]), 315 nM.
Consider “N2-(3-Aminosulfonyl-4-methylphenyl)-N4-(4-ethylaminocarbonylaminomethylphenyl)-5-fluoro-2,4-pyrimidinedia [III-121]”, for which the IC50 in test [1] (setting [5]) was 1020 nM; in test [2] (setting [6]), 575 nM.
Consider “N2-(3-Aminosulfonylphenyl)-N4-(4-chloro-3-trifluoromethylphenyl)-5-fluoro-2,4-pyrimidinediamine [VI-38]”, for which the IC50 amounted to 2070 nM in test [1] (setting [5]) and 414 nM in test [2] (setting [6]).
With “N4-(4-Acetylthiomethylcarbonylphenyl)-N2-(3-aminosulfonyl-4-methylphenyl)-5-fluoro-2,4-pyrimidinediamine [IX-43]”, the IC50 in test [1] (setting [5]) came out at 2800 nM; in test [2] (setting [6]) it was 523 nM.
In the case of “N4-(4-Acetylthiomethylcarbonylphenyl)-N2-(3-aminosulfonylphenyl)-5-fluoro-2,4-pyrimidinediamine [IX-42]”, the IC50 in test [1] (setting [5]) is 2170 nM; in test [2] (setting [6]), 292 nM.
Turning to “N4-(4-Acetylthiomethylcarbonylphenyl)-N2-(4-aminosulfonylphenyl)-5-fluoro-2,4-pyrimidinediamine [IX-41]”, the IC50 in test [1] (setting [5]) amounted to 6260 nM; in test [2] (setting [6]) it was 133 nM.

A word on the IC50: it is the concentration at which inhibition is half-maximal.
